Experiment [1] concerns the target human recombinant GABAA α1β3γ2 receptor (Homo sapiens (Human), UniProt P14867+P18507). Description: Functional assay, QPatch automated patch clamp, GABA-evoked currents. The format is cell-based. As to conditions: test compound 10 μM, 1 μM GABA, HEK293 cells, percentage modulation of peak current. On the procedure:
(§1) Human HEK293 cell lines expressing GABAA α1β3γ2 and GABAAα5β3γ2 receptors were used in functional assays using the QPatch automated patch clamp system.
(§2) HEK293 cell lines stably expressing human recombinant GABAA α1β3γ2 receptor subunits (Millipore, CYL3073) or human recombinant GABAA α5β3γ2 receptor subunits (Millipore, CYL3053) were cultured in DMEM supplemented with 10% FBS (Gibco), passed two times per week and plated on Petri dishes previously coated with poly-d-lysine.
(§3) Automated whole-cell patch clamp recordings were made from cells 2-4 days after plating. Cells were detached using trypsin/EDTA (Sigma) treatment (2 minutes in 0.25% trypsin at 37° C.), then, after centrifugation (125 G, 3 min, 2×), resuspended in a serum-free based media (Gibco, CHO—S-SFM-II) containing 12.5 mM HEPES, 1× penicillin-streptomycin-amphotericin (SigmaMix) and soybean trypsin inhibitor (Sigma, 0.04 mg/ml).
(§4) Cell suspension, as well as the extracellular solution (130 mM NaCl, 5 mM KCl, 5.1 mM HEPES, 4.9 mM HEPES-Na, 10 mM CaCl2), 2 mM MgCl2, 10 mM glucose and 0.1% DMSO, pH=7.35-7.4) and the intracellular solution (80 mM KCl, 50 mM KF, 36 mM KOH, 10 mM EGTA, 10 mM HEPES, 1.75 mM MgCl2, 0.5 mM CaCl2), 4 mM Na2ATP. 14 mM phosphocreatine, 50 U/ml creatine-phosphokinase, 0.3 mM GTP, pH=7.25-7.3) were added to the QPatch-HTX automated patch clamp system (Sophion) in single-cell mode at room temperature. […] At the end of the experiment 100 μM GABA was applied to saturate the GABA-response and to assess the efficacy of the control GABA application.
(§5) The percentage modulation was calculated from the comparison of GABA-evoked peak current amplitudes in the presence and absence of the test compound.
In general terms: In patch-clamp work, channel activity is measured electrically.

Experiment [2] concerns the target T1, human recombinant GABAA α5β3γ2 receptor (Homo sapiens (Human), UniProt P18507+P31644). Described as above. The format is cell-based. The conditions noted are these: test compound 10 μM, 1 μM GABA, HEK293 cells, percentage modulation of peak current. As to the method:
as §1, §2, §3, §4, §5

Experiment [3] has as its target T1, human recombinant GABAA α5β3γ2 receptor. In words: Binding assay, [3H]Ro151788 displacement on membranes of HEK cells. The conditions noted are these: 0.5 nM [3H]Ro151788, 60 minutes at 4° C., Cheng-Prusoff; read-out: hGABAA α5 Ki. The gist of the method:
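HEK-cell membranes with recombinant human α5β3γ2 incubated 60 min at 4 °C with 0.5 nM [3H]Ro151788 in 50 mM Tris pH 7.4, 100 mM KCl; nonspecific binding with 10 μM diazepam. Filtration, scintillation count; % inhibition of specific binding, IC50 from ≥6 concentrations in triplicate, Ki via Cheng-Prusoff.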

We go through seven compounds from patent US12370182B2, “Bicyclic derivatives as GABAA A5 receptor modulators” (RICHTER GEDEON NYRT., priority 2018, dated 2025).

pKi: −log10 of the molar value.

human recombinant GABAA α1β3γ2 receptor, sequence (P14867 28-456): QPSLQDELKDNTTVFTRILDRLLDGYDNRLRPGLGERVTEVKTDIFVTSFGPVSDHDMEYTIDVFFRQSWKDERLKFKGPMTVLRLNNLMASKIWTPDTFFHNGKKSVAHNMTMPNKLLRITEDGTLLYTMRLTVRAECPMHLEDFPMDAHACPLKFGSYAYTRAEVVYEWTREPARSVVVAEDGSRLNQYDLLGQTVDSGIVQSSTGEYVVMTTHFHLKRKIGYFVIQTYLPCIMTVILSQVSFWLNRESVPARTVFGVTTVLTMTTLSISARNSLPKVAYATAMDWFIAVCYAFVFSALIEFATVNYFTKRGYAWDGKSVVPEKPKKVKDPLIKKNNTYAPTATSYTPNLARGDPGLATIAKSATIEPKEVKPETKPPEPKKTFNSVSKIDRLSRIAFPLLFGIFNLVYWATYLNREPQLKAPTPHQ
human recombinant GABAA α1β3γ2 receptor, sequence (P28472 26-473 partner): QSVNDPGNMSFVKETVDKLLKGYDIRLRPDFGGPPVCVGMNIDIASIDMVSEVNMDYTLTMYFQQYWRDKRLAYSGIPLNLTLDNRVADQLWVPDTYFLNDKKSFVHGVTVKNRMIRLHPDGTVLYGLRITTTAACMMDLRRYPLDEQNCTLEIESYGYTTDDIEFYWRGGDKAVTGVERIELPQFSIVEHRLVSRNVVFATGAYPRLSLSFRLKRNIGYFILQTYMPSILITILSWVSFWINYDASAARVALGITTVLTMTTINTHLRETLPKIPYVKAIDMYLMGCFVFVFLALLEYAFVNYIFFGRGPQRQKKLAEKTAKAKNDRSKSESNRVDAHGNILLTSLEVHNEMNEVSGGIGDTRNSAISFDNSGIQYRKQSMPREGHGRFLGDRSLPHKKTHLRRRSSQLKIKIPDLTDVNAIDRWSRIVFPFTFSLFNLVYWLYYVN
human recombinant GABAA α1β3γ2 receptor, sequence (P18507 40-475): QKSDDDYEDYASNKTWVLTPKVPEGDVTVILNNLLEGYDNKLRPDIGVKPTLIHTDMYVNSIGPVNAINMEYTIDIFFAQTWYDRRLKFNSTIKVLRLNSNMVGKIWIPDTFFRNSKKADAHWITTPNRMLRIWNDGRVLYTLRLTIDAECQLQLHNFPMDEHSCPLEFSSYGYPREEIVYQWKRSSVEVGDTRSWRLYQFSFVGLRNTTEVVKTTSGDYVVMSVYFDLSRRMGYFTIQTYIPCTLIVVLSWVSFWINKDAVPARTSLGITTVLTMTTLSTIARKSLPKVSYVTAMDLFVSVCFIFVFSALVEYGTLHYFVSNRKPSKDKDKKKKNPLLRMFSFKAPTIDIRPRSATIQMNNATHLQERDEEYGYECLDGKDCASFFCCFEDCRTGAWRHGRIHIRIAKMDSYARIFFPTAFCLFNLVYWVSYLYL
T1 sequence (P31644 32-462): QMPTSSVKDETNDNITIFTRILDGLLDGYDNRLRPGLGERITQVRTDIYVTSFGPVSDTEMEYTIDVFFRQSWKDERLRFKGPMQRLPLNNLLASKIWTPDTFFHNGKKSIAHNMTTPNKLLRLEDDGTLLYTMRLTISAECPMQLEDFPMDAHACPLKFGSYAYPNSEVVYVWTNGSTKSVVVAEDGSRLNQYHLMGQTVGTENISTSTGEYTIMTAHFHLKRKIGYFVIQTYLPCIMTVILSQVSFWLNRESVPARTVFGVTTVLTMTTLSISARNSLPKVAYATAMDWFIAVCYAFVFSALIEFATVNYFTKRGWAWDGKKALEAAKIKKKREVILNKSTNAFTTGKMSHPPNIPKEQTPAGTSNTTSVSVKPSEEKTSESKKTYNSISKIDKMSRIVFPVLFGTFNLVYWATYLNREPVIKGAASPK
T1 sequence (P28472 26-473 partner): as the sequence (P28472 26-473 partner) above
T1 sequence (P18507 40-475): as the sequence (P18507 40-475) above

With `Cc1nnn(-c2ccc(F)cc2)c1COc1ccc2c(n1)CCN(C(=O)C1CCOCC1)C2` [Example 28, 2-{[1-(4-fluorophenyl)-4-methyl-1H-1,2,3-triazol-5-yl]methoxy}-6-(oxane-4-carbonyl)-5,6,7,8-tetrahydro-1,6-naphthyridine], the “hGABAA α1 efficacy” value in experiment [1] is −6%. In addition, the “hGABAA α5 efficacy” value in experiment [2] was −40%. For the same compound, the pKi (commonly the negative decadic logarithm of the Ki, by convention in mol/L) in experiment [3] was 7.37.
`CC(=O)N1Cc2ccc(OCc3c(C)nnn3-c3ccc(F)cc3)nc2C1` [Example 45, 1-(2-{[1-(4-fluorophenyl)-4-methyl-1H-1,2,3-triazol-5-yl]methoxy}-5H,6H,7H-pyrrolo[3,4-b]pyridin-6-yl)ethan-1-one]: in experiment [1], the “hGABAA α1 efficacy” value was −7%. Also, the “hGABAA α5 efficacy” value in experiment [2] is −30%. Further, the pKi in experiment [3] is 8.49.
On the same counts, the results for `Cc1nnn(-c2ccc(F)cc2)c1COc1ccc2c(n1)CN(C(=O)C1CC1)C2` [Example 47, cyclopropyl(2-{[1-(4-fluorophenyl)-4-methyl-1H-1,2,3-triazol-5-yl]methoxy}-5,7-dihydro-6H-pyrrolo[3,4-b]pyridin-6-yl)methanone] are −10%, −34% and 8.14.
On the same counts, the results for `Cc1nnn(-c2ccc(F)cc2)c1COc1ccc2c(n1)CN(C(=O)CC(C)C)C2` [Example 56, 1-(2-{[1-(4-fluorophenyl)-4-methyl-1H-1,2,3-triazol-5-yl]methoxy}-5H,6H,7H-pyrrolo[3,4-b]pyridin-6-yl)-3-methylbutan-1-one] are −14%, −40% and 7.77.
On the same counts, the results for `Cc1nnn(-c2ccc(F)cc2)c1COc1ccc2c(n1)CN(C(=O)C1CCCO1)C2` (stereo not drawn) [Example 61, 1-(4-fluorophenyl)-4-methyl-5-({[6-(oxolane-2-carbonyl)-5H,6H,7H-pyrrolo[3,4-b]pyridin-2-yl]oxy}methyl)-1H-1,2,3-triazole] are −20%, −41% and 8.32.
As to `Cc1nnn(-c2ccc(F)cc2)c1COc1ccc2c(n1)CCN(C(=O)NC1CC(=O)N(C)C1)C2` (stereo not drawn) [Example 75, 2-{[1-(4-fluorophenyl)-4-methyl-1H-1,2,3-triazol-5-yl]methoxy}-N-(1-methyl-5-oxopyrrolidin-3-yl)-5,6,7,8-tetrahydro-1,6-naphthyridine-6-carboxamide], the “hGABAA α1 efficacy” value in experiment [1] is reported as −3%. The “hGABAA α5 efficacy” value in experiment [2] was −35%. For the same compound, the pKi in experiment [3] was 7.42.
The matching figures for `Cc1nnn(-c2ccc(F)cc2)c1COc1ccc2c(n1)CCN(C(=O)NC1CCOC1)C2` (stereo not drawn) [Example 78, 2-{[1-(4-fluorophenyl)-4-methyl-1H-1,2,3-triazol-5-yl]methoxy}-N-(oxolan-3-yl)-5,6,7,8-tetrahydro-1,6-naphthyridine-6-carboxamide]: −3%, −34% and 7.55.
